Measured values as given in US20210045385A1, “PYRIDAZINONE-SUBSTITUTED KETOXIMES AS HERBICIDES” (FMC Corporation, priority 2018, published 2021).

Columns and labels:
Format in all cases: in vivo
[1] = tested on: ragweed (common ragweed, Ambrosia artemisiifolia); experiment: Test C preemergence, visual plant response rating
Summary of the method: (§1)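 Seeds sown in a loam–sand blend got a directed preemergence soil spray; postemergence plants (2–10 cm, one- to two-leaf stage) were sprayed with compound in a non-phytotoxic solvent plus surfactant. Injury was scored visually against untreated controls after about 10 d in a greenhouse on a 0–100 scale (100 = complete control).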

[2] = tested on: barnyardgrass (Echinochloa crus-galli); experiment: Test C preemergence, visual plant response rating
Summary of the method: as §1

[3] = tested on: pigweed (Amaranthus retroflexus); experiment: Test C preemergence, visual plant response rating
Summary of the method: as §1

[4] = tested on: kochia (Bassia scoparia); experiment: Test C preemergence, visual plant response rating
Summary of the method: as §1

[5] = tested on: foxtail, giant (giant foxtail, Setaria faberi); experiment: Test C preemergence, visual plant response rating
Summary of the method: as §1

[6] = tested on: Italian ryegrass (Lolium mutiflorum); experiment: Test C preemergence, visual plant response rating
Summary of the method: as §1

[7] = tested on: barnyardgrass (Echinochloa crus-galli); experiment: Test D flooded paddy test, visual plant response rating; details: 250 g ai/ha, scale 0 to 100 (0 no effect, 100 complete control), 13 to 15 d
Summary of the method: (§2)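 Greenhouse paddy assay scored on a 0–100 visual scale after 13 to 15 d, where 100 means complete control and a dash marks no result; dosing was into 3 cm floodwater over 2-leaf plants.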

[8] = tested on: sedge umbrella (small-flower umbrella sedge, Cyperus difformis); experiment: as above; details: 250 g ai/ha, scale 0 to 100 (0 no effect, 100 complete control), 13 to 15 d
Summary of the method: as §2

[9] = tested on: rice (Oryza sativa); experiment: as above; details: 250 g ai/ha, scale 0 to 100 (0 no effect, 100 complete control), 13 to 15 d
Summary of the method: as §2

[10] = tested on: duck salad (Heteranthera limosa); experiment: as above; details: 250 g ai/ha, scale 0 to 100 (0 no effect, 100 complete control), 13 to 15 d
Summary of the method: as §2

[11] = tested on: wheat (Triticum aestivum); experiment: Test C postemergence, visual plant response rating
Summary of the method: as §1

[12] = tested on: blackgrass (Alopecurus myosuroides); experiment: Test C postemergence, visual plant response rating
Summary of the method: as §1

[13] = tested on: ragweed (common ragweed, Ambrosia artemisiifolia); experiment: Test C postemergence, visual plant response rating
Summary of the method: as §1

[14] = tested on: barnyardgrass (Echinochloa crus-galli); experiment: Test C postemergence, visual plant response rating
Summary of the method: as §1

[15] = tested on: corn (Zea mays); experiment: Test C postemergence, visual plant response rating
Summary of the method: as §1

[16] = tested on: pigweed (Amaranthus retroflexus); experiment: Test C postemergence, visual plant response rating
Summary of the method: as §1

[17] = tested on: galium (catchweed bedstraw, Galium aparine); experiment: Test C postemergence, visual plant response rating
Summary of the method: as §1

[18] = tested on: kochia (Bassia scoparia); experiment: Test C postemergence, visual plant response rating
Summary of the method: as §1

[19] = tested on: foxtail, giant (giant foxtail, Setaria faberi); experiment: Test C postemergence, visual plant response rating
Summary of the method: as §1

[20] = tested on: Italian ryegrass (Lolium mutiflorum); experiment: Test C postemergence, visual plant response rating
Summary of the method: as §1

[21] = Test C, 31 g ai/ha, 0 is no effect, 100 is complete control
[22] = Test C, postemergence, 125 g ai/ha
[23] = Test C, postemergence, 31 g ai/ha
[24] = Test C, 125 g ai/ha, 0 is no effect, 100 is complete control

Compound	Ragweed plant response rating (0 to 100 scale) [1, 21]	Barnyardgrass plant response rating (0 to 100 scale) [2, 21]	Pigweed plant response rating (0 to 100 scale) [3, 21]	Kochia plant response rating (0 to 100 scale) [4, 21]	Foxtail, Giant plant response rating (0 to 100 scale) [5, 21]	Ryegrass, Italian plant response rating (0 to 100 scale) [6, 21]	Plant response rating, Barnyardgrass (Flood) [7]	Plant response rating, Sedge, Umbrella (Flood) [8]	Plant response rating, Rice (Flood) [9]	Plant response rating, Ducksalad (Flood) [10]	Wheat plant response rating (0 to 100 scale) ([11]; Postemergence, 31 g ai/ha)	Wheat plant response rating (0 to 100 scale) [11, 22]	Blackgrass plant response rating (0 to 100 scale) [12, 22]	Ragweed plant response rating (0 to 100 scale) ([13]; Postemergence, 31 g ai/ha)	Ragweed plant response rating (0 to 100 scale) [13, 22]	Barnyardgrass plant response rating (0 to 100 scale) [14, 22]	Corn plant response rating (0 to 100 scale) [15, 22]	Pigweed plant response rating (0 to 100 scale) ([16]; Postemergence, 31 g ai/ha)	Pigweed plant response rating (0 to 100 scale) [16, 22]	Galium plant response rating (0 to 100 scale) [17, 22]	also measured
CO/N=C(\c1cc(Cl)cc(Br)c1)c1c(O)c(C)nn(C)c1=O [Compound 157]	100	70	10	50	80	90	0	0	0	0	0	60	20	70	100	80	30	20	60	100	Ragweed plant response rating (0 to 100 scale) ([1]; 125 g ai/ha): 100; Barnyardgrass plant response rating (0 to 100 scale) ([2]; 125 g ai/ha): 90; Pigweed plant response rating (0 to 100 scale) ([3]; 125 g ai/ha): 40; Kochia plant response rating (0 to 100 scale) ([4]; 125 g ai/ha): 100; Foxtail, Giant plant response rating (0 to 100 scale) ([5]; 125 g ai/ha): 100; Ryegrass, Italian plant response rating (0 to 100 scale) ([6]; 125 g ai/ha): 100; Blackgrass plant response rating (0 to 100 scale) [12, 23]: 10; Barnyardgrass plant response rating (0 to 100 scale) [14, 23]: 30; Corn plant response rating (0 to 100 scale) [15, 23]: 10; Galium plant response rating (0 to 100 scale) [17, 23]: 90; Kochia plant response rating (0 to 100 scale) [18, 23]: 80; Kochia plant response rating (0 to 100 scale) [18, 22]: 100; Foxtail, Giant plant response rating (0 to 100 scale) [19, 23]: 60; Foxtail, Giant plant response rating (0 to 100 scale) [19, 22]: 90; Ryegrass, Italian plant response rating (0 to 100 scale) ([20]; Postemergence, 31 g ai/ha): 70; Ryegrass, Italian plant response rating (0 to 100 scale) [20, 22]: 100
C#CCON=C(c1cccc(OCC(F)(F)F)c1)c1c(O)c(C)nn(C)c1=O [Compound 197]	0	0	0	0	0	0	0	0	0	0	0	0	30	0	0	10	0	10	30	30	Ragweed plant response rating (0 to 100 scale) [1, 24]: 0; Barnyardgrass plant response rating (0 to 100 scale) [2, 24]: 0; Pigweed plant response rating (0 to 100 scale) [3, 24]: 20; Kochia plant response rating (0 to 100 scale) [4, 24]: 0; Foxtail, Giant plant response rating (0 to 100 scale) [5, 24]: 10; Ryegrass, Italian plant response rating (0 to 100 scale) [6, 24]: 20; Blackgrass plant response rating (0 to 100 scale) ([12]; Postemergence, 31 g ai/ha): 0; Barnyardgrass plant response rating (0 to 100 scale) ([14]; Postemergence, 31 g ai/ha): 0; Corn plant response rating (0 to 100 scale) ([15]; Postemergence, 31 g ai/ha): 0; Galium plant response rating (0 to 100 scale) ([17]; Postemergence, 31 g ai/ha): 0; Kochia plant response rating (0 to 100 scale) ([18]; Postemergence, 31 g ai/ha): 0; Kochia plant response rating (0 to 100 scale) [18, 22]: 0; Foxtail, Giant plant response rating (0 to 100 scale) ([19]; Postemergence, 31 g ai/ha): 0; Foxtail, Giant plant response rating (0 to 100 scale) [19, 22]: 20; Ryegrass, Italian plant response rating (0 to 100 scale) ([20]; Postemergence, 31 g ai/ha): 0; Ryegrass, Italian plant response rating (0 to 100 scale) [20, 22]: 20
